{
  "source": "ChEMBL document CHEMBL1136413",
  "about": "“Caged RNase: photoactivation of the enzyme from perfect off-state by site-specific incorporation of 2-nitrobenzyl moiety” (Bioorg Med Chem Lett, 2003)",
  "key": {"[1]": {"experiment": "Perfect off-state by site-specific incorporation of o-nitrobenzyl (o-NB) unit into RNase S' was determined after photolysis at 10 x E5 M/min"}, "[2]": {"experiment": "Perfect off-state by site-specific incorporation of o-nitrobenzyl (o-NB) unit into RNase S' was determined before photolysis at 10 x E5 M/min"}, "[3]": {"experiment": "Michaelis-Menten parameter(Kcat) value for the incorporation of photo-labile caged moiety into a proximity to the active site"}, "[4]": {"experiment": "Michaelis-Menten parameter(Km) value for the incorporation of photo-labile caged moiety into a proximity to the active site"}, "[5]": {"experiment": "Michaelis-Menten parameter value for the incorporation of photo-labile caged moiety into a proximity to the active site"}},
  "note": "Non-standard residues stand in square brackets, D forms with d. Residues, ends and D or L forms follow the SMILES beside them. *: point of attachment. X2 = COC(=O)C(N*)c1ccccc1[N+](=O)[O-]; X3 = O=C(OCc1ccccc1[N+](=O)[O-])*; X1 = O=[N+]([O-])c1ccccc1CO*; Nle = CCCC[C@H](N)C(=O)O",
  "data": [
    {"smiles": "CCCC[C@H](NC(=O)[C@H](Cc1c[nH]cn1)NC(=O)[C@H](CCC(N)=O)NC(=O)[C@H](CCCN=C(N)N)NC(=O)[C@H](CCC(=O)OCc1ccccc1[N+](=O)[O-])NC(=O)[C@H](Cc1ccccc1)NC(=O)[C@H](CCCCN)NC(=O)[C@H](C)NC(=O)[C@H](C)NC(=O)[C@H](C)NC(=O)[C@@H](NC(=O)[C@H](CCC(=O)O)NC(=O)[C@@H](N)CCCCN)[C@@H](C)O)C(=O)N[C@@H](CC(=O)O)C(=O)N[C@@H](CO)C(=O)O", "note": "(H-KETAAAKFE(X1)RQH[Nle]DS-OH)", "values": [
      {"measurement": "RNase S' enzyme activity", "setting": "[1]", "result": 0.97},
      {"measurement": "Photolysis", "setting": "[2]", "result": 0.99}
    ]},
    {"smiles": "CCCC[C@H](NC(=O)[C@H](Cc1c[nH]cn1)NC(=O)[C@H](CCC(N)=O)NC(=O)[C@H](CCCN=C(N)N)NC(=O)[C@H](CCC(=O)O)NC(=O)[C@H](Cc1ccccc1)NC(=O)[C@H](CCCCN)NC(=O)[C@H](C)NC(=O)[C@H](C)NC(=O)[C@H](C)NC(=O)[C@@H](NC(=O)[C@H](CCC(=O)OCc1ccccc1[N+](=O)[O-])NC(=O)[C@@H](N)CCCCN)[C@@H](C)O)C(=O)N[C@@H](CC(=O)O)C(=O)N[C@@H](CO)C(=O)O", "note": "(H-KE(X1)TAAAKFERQH[Nle]DS-OH)", "values": [
      {"measurement": "RNase S' enzyme activity", "setting": "[1]", "result": 0.81},
      {"measurement": "Photolysis", "setting": "[2]", "result": 0.96}
    ]},
    {"smiles": "CCCC[C@H](NC(=O)[C@H](Cc1c[nH]cn1)NC(=O)[C@H](CCC(N)=O)NC(=O)[C@H](CCCN=C(N)N)NC(=O)[C@H](CCC(=O)O)NC(=O)[C@H](Cc1ccccc1)NC(=O)[C@H](CCCCN)NC(=O)[C@H](C)NC(=O)[C@H](C)NC(=O)[C@H](C)NC(=O)[C@@H](NC(=O)[C@H](CCC(=O)O)NC(=O)[C@@H](N)CCCCNC(=O)OCc1ccccc1[N+](=O)[O-])[C@@H](C)O)C(=O)N[C@@H](CC(=O)O)C(=O)N[C@@H](CO)C(=O)O", "note": "(H-K(X3)ETAAAKFERQH[Nle]DS-OH)", "values": [
      {"measurement": "RNase S' enzyme activity", "setting": "[1]", "result": 1.04},
      {"measurement": "Photolysis", "setting": "[2]", "result": 1.01}
    ]},
    {"smiles": "CCCC[C@H](NC(=O)[C@H](Cc1c[nH]cn1)NC(=O)[C@H](CCC(=O)NC(C(=O)OC)c1ccccc1[N+](=O)[O-])NC(=O)[C@H](CCCN=C(N)N)NC(=O)[C@H](CCC(=O)O)NC(=O)[C@H](Cc1ccccc1)NC(=O)[C@H](CCCCN)NC(=O)[C@H](C)NC(=O)[C@H](C)NC(=O)[C@H](C)NC(=O)[C@@H](NC(=O)[C@H](CCC(=O)O)NC(=O)[C@@H](N)CCCCN)[C@@H](C)O)C(=O)N[C@@H](CC(=O)O)C(=O)N[C@@H](CO)C(=O)O", "note": "(stereo partly specified) (H-KETAAAKFERE(X2)H[Nle]DS-OH)", "values": [
      {"measurement": "RNase S' enzyme activity", "setting": "[1]", "result": 0.37},
      {"measurement": "Photolysis", "setting": "[2]", "result": 0}
    ]},
    {"smiles": "CCCC[C@H](NC(=O)[C@H](Cc1c[nH]cn1)NC(=O)[C@H](CCC(N)=O)NC(=O)[C@H](CCCN=C(N)N)NC(=O)[C@H](CCC(=O)O)NC(=O)[C@H](Cc1ccccc1)NC(=O)[C@H](CCCCNC(=O)OCc1ccccc1[N+](=O)[O-])NC(=O)[C@H](C)NC(=O)[C@H](C)NC(=O)[C@H](C)NC(=O)[C@@H](NC(=O)[C@H](CCC(=O)O)NC(=O)[C@@H](N)CCCCN)[C@@H](C)O)C(=O)N[C@@H](CC(=O)O)C(=O)N[C@@H](CO)C(=O)O", "note": "(H-KETAAAK(X3)FERQH[Nle]DS-OH)", "values": [
      {"measurement": "RNase S' enzyme activity", "setting": "[1]", "result": 1.04},
      {"measurement": "Photolysis", "setting": "[2]", "result": 1.1}
    ]},
    {"smiles": "CCCC[C@H](NC(=O)[C@H](Cc1c[nH]cn1)NC(=O)[C@H](CCC(N)=O)NC(=O)[C@H](CCCN=C(N)N)NC(=O)[C@H](CCC(=O)O)NC(=O)[C@H](Cc1ccccc1)NC(=O)[C@H](CCCCN)NC(=O)[C@H](C)NC(=O)[C@H](C)NC(=O)[C@H](C)NC(=O)[C@@H](NC(=O)[C@H](CCC(=O)O)NC(=O)[C@@H](N)CCCCN)[C@@H](C)O)C(=O)N[C@@H](CC(=O)OCc1ccccc1[N+](=O)[O-])C(=O)N[C@@H](CO)C(=O)O", "note": "(H-KETAAAKFERQH[Nle]D(X1)S-OH)", "values": [
      {"measurement": "RNase S' enzyme activity", "setting": "[1]", "result": 0.78},
      {"measurement": "Photolysis", "setting": "[2]", "result": 0.29},
      {"measurement": "k cat", "setting": "[3]", "result": 0.054, "unit": "s⁻¹"},
      {"measurement": "Km", "setting": "[4]", "result": 1130, "unit": "µM"}
    ]},
    {"smiles": "CCCC[C@H](NC(=O)[C@H](Cc1c[nH]cn1)NC(=O)[C@H](CCC(N)=O)NC(=O)[C@H](CCCN=C(N)N)NC(=O)[C@H](CCC(=O)O)NC(=O)[C@H](Cc1ccccc1)NC(=O)[C@H](CCCCN)NC(=O)[C@H](C)NC(=O)[C@H](C)NC(=O)[C@H](C)NC(=O)[C@@H](NC(=O)[C@H](CCC(=O)O)NC(=O)[C@@H](N)CCCCN)[C@@H](C)O)C(=O)N[C@@H](CC(=O)O)C(=O)N[C@@H](CO)C(=O)O", "note": "(H-KETAAAKFERQH[Nle]DS-OH)", "values": [
      {"measurement": "Photolysis", "setting": "[2]", "result": 1.02},
      {"measurement": "k cat", "setting": "[5]", "result": 0.0678, "unit": "s⁻¹"}
    ]}
  ]
}
